ChEMBL document CHEMBL1146412, “Sch 54445: a new polycyclic xanthone with highly potent antifungal activity produced by Actinoplanes sp” (J Nat Prod, 1997)

Assay: Toxicity in iv dosed mouse
Format: organism-based
Details: in vivo

CCC(C)c1cc2c(Cl)c3c(c(O)c2c(=O)n1N)-c1c(O)c2c(c4c1[C@@H](C3)OCO4)O[C@H]1[C@@H](C2=O)[C@@H](O)C=C[C@H]1OC (stereo partly specified)
LD50: 1 mg/kg
